Structures can show the parent of a compound that is named as a salt. Where two headings read alike, the source gives them in different places.
Legend:
[1] = Cytotoxicity in MRC5 cells without virus infection (CCK8); assay type: cell-based; conditions: human
[2] = target: T1, hERG potassium channel (Homo sapiens, UniProt Q12809); assay: Inhibition of hERG potassium channel, automated patch clamp (SyncroPatch 384PE) in CHO cells; assay type: cell-based
T1 construct: host or cells: CHO cells stably expressing hERG
T1 sequence (Q12809 whole entry): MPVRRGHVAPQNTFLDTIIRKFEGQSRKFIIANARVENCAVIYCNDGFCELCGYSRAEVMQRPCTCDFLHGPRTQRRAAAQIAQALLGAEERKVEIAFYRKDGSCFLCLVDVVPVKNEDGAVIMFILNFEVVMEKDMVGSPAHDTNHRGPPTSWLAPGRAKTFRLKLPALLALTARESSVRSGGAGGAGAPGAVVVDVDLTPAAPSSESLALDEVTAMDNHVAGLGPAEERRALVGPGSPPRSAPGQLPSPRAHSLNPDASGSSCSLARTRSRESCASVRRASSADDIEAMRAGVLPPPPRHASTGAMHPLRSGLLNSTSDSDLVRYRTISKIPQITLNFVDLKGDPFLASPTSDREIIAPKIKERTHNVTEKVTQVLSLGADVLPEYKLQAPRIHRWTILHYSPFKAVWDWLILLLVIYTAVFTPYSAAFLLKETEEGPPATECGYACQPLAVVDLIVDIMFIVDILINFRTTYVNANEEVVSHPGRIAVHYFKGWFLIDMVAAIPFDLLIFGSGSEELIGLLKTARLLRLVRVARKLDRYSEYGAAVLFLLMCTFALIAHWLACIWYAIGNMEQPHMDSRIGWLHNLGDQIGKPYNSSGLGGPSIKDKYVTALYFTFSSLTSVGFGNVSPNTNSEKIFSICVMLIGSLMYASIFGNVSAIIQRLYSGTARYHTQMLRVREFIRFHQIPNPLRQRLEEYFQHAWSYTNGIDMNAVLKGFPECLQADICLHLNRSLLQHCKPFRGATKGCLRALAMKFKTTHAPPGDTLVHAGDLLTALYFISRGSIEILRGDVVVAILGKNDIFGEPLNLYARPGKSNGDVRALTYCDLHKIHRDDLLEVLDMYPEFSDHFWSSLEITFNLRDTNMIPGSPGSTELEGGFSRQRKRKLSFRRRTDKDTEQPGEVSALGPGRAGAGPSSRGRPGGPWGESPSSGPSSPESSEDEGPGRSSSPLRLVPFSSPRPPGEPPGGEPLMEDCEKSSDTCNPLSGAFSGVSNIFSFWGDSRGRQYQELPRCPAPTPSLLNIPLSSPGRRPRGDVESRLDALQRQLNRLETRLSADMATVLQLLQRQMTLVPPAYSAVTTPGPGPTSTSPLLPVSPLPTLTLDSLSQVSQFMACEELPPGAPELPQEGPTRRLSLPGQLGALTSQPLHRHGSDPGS

[3] = target: T2, HCMV DNA polymerase (UL54) (Human cytomegalovirus, UniProt P08546); assay: HCMV DNA polymerase enzyme inhibition assay (ProFoldin, fluorescence); assay type: biochemical; conditions: 37° C., duplicate, max 40 μM
T2 construct: 6His (C); made in house; host or cells: Sf9 insect cells (baculovirus, pFastBac)
T2 sequence (P08546 whole entry): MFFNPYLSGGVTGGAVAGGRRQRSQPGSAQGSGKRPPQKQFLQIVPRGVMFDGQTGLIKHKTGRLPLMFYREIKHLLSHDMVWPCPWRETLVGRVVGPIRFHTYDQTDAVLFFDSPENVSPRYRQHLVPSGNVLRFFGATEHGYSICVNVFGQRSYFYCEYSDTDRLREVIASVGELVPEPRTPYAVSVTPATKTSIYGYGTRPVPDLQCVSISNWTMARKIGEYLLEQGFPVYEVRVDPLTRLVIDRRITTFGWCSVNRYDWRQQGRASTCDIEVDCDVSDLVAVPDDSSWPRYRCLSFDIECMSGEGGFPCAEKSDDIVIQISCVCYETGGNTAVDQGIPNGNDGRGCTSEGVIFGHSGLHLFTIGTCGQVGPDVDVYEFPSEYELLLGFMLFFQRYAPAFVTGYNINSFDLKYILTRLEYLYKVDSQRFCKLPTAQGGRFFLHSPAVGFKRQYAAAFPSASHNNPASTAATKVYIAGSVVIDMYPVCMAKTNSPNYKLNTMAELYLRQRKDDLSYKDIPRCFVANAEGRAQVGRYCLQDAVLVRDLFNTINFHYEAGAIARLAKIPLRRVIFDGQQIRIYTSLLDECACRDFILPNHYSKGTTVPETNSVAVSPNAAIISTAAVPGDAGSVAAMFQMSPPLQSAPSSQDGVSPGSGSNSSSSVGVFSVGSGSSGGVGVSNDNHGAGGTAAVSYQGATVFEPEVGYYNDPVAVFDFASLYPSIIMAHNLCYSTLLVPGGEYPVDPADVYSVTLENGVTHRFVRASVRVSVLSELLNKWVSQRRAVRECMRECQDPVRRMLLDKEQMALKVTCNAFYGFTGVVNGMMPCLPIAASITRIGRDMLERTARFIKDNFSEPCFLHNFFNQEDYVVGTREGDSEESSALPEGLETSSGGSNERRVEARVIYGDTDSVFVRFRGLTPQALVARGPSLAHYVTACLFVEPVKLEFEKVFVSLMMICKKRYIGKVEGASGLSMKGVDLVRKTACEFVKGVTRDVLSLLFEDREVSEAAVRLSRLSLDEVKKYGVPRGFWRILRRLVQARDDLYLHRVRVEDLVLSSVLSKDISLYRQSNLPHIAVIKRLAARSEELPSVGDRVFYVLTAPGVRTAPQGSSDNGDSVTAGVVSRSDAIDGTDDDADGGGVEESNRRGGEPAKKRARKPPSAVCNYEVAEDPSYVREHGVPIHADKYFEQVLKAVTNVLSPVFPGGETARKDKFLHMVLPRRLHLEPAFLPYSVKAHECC

[4] = tested on: HCMV US3-6-EGFP-HCMV-AD169 strain; assay: In vitro inhibitory (antiviral) activity against HCMV, GFP reporter in MRC5 cells; assay type: cell-based, Human cytomegalovirus (HCMV); conditions: Human betaherpesvirus 5, AD169, MRC5, 96 h, read-out: HCMV Antiviral EC50 range
How it was run: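 MRC5 cells were infected with GFP-reporter virus (MOI=0.1) alongside compounds (8 points, 3-fold dilutions, duplicate; top 40 μM test compounds, 100 μM ganciclovir; 0.5% DMSO final) for 4 days at 37 °C. GFP fluorescence inhibition, normalized to virus and cell controls, gave EC50; viability gave CC50.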

[5] = CHO cells stably expressing hERG, room temperature, 0.494-40.00 μM, read-out: CHO-hERG Activity Range

Question: For `CC(C)[C@H](N)C(=O)NCCN1CCN(c2cnc3c(cc(C(=O)NCc4ccc(Cl)cc4)c(=O)n3CC(=O)N3CC(C)(F)C3)n2)C1=O` [Compound 37, N-[(4-chlorophenyl)methyl]-5-[2-(3-fluoro-3-methylazetidin-1-yl)-2-oxoethyl]-6-oxo-2-{2-oxo-3-[2-(L-valylamino)ethyl]imidazolidin-1-yl}-5,6-dihydropyrido[2,3-b]pyrazine-7-carboxamide-hydrochloride salt], which CC50 at 4 days ([1]; MRC5 cells, 4 days, CCK8, highest concentration 40 μM, read-out: MCR5 CC50) is on record?
Answer: Its CC50 at 4 days is over 40 µM.

Question: And the IC50 [2, 5]?
Answer: The IC50 was over 10 µM.

Question: What about the IC50 [3] of the same compound?
Answer: Its IC50 is over 1 µM.

Question: What about the EC50 [4] of the same compound?
Answer: Its EC50 is under 1 µM.

Question: For `CC1(F)CN(C(=O)Cn2c(=O)c(C(=O)NCc3ccc(Cl)cc3)cc3nc(N4CCN(CC(N)=O)C4=O)cnc32)C1` [Compound 40, 2-[3-(2-amino-2-oxoethyl)-2-oxoimidazolidin-1-yl]-N-[(4-chlorophenyl)methyl]-5-[2-(3-fluoro-3-methylazetidin-1-yl)-2-oxoethyl]-6-oxo-5,6-dihydropyrido[2,3-b]pyrazine-7-carboxamide], which CC50 at 4 days [1] is on record?
Answer: The CC50 at 4 days was over 40 µM.

Question: What about the IC50 [2, 5] of the same compound?
Answer: The IC50 was over 10 µM.

Question: And the IC50 [3]?
Answer: The IC50 was under 1 µM.

Question: What about the EC50 [4] of the same compound?
Answer: The EC50 was over 1 µM.

Question: For `CC1(F)CN(C(=O)Cn2c(=O)c(C(=O)NCc3ccc(Cl)cc3)cc3nc(N4CC(=O)NC4=O)cnc32)C1` [Compound 41, N-[(4-chlorophenyl)methyl]-2-(2,4-dioxoimidazolidin-1-yl)-5-[2-(3-fluoro-3-methylazetidin-1-yl)-2-oxoethyl]-6-oxo-5,6-dihydropyrido[2,3-b]pyrazine-7-carboxamide], which CC50 at 4 days [1] is on record?
Answer: Its CC50 at 4 days is 23 µM.

Question: And the IC50 [2, 5]?
Answer: The IC50 was over 10 µM.

Question: And the IC50 [3]?
Answer: Its IC50 is under 1 µM.

Question: And the EC50 [4]?
Answer: The EC50 was over 1 µM.

Question: For `CN(C)CCN1CCN(c2cnc3c(cc(C(=O)NCc4ccc(Cl)cc4)c(=O)n3CC(=O)N3CC(C)(F)C3)n2)C1=O` [Compound 42, N-[(4-chlorophenyl)methyl]-2-{3-[2-(dimethylamino)ethyl]-2-oxoimidazolidin-1-yl}-5-[2-(3-fluoro-3-methylazetidin-1-yl)-2-oxoethyl]-6-oxo-5,6-dihydropyrido[2,3-b]pyrazine-7-carboxamide], which CC50 at 4 days [1] is on record?
Answer: Its CC50 at 4 days is over 40 µM.

Question: And the IC50 [2, 5]?
Answer: The IC50 was over 10 µM.

Question: And the IC50 [3]?
Answer: The IC50 was over 1 µM.

Question: What about the EC50 [4] of the same compound?
Answer: Its EC50 is under 1 µM.

Question: Which CC50 at 4 days [1] does the source give for `CC1(C)CN(C(=O)Cn2c(=O)c(C(=O)NCc3ccc(Cl)cc3)cc3nc(N4CCN(C(C)(C)C(=O)O)C4=O)cnc32)C1` [Compound 43, 2-[3-(7-{[(4-chlorophenyl)methyl]carbamoyl}-5-[2-(3,3-dimethylazetidin-1-yl)-2-oxoethyl]-6-oxo-5,6-dihydropyrido[2,3-b]pyrazin-2-yl)-2-oxoimidazolidin-1-yl]-2-methylpropanoic acid] here?
Answer: Its CC50 at 4 days is over 40 µM.

Question: What about the IC50 [2, 5] of the same compound?
Answer: The IC50 was over 10 µM.

Question: What about the IC50 [3] of the same compound?
Answer: Its IC50 is under 1 µM.

Question: And the EC50 [4]?
Answer: Its EC50 is under 1 µM.

Question: With `CC(C)(C(=O)O)N1CCN(c2cnc3c(cc(C(=O)NCc4ccc(Cl)cc4)c(=O)n3CC(=O)N3CC4(CC4)C3)n2)C1=O` [Compound 44, 2-[3-(5-[2-(5-azaspiro[2.3]hexan-5-yl)-2-oxoethyl]-7-{[(4-chlorophenyl)methyl]carbamoyl}-6-oxo-5,6-dihydropyrido[2,3-b]pyrazin-2-yl)-2-oxoimidazolidin-1-yl]-2-methylpropanoic acid] as the compound, how does the CC50 at 4 days [1] read?
Answer: Its CC50 at 4 days is over 40 µM.

Question: And the IC50 [2]?
Answer: Its IC50 is over 10 µM.

Question: And the IC50 [3]?
Answer: The IC50 was under 1 µM.

Question: What about the EC50 [4] of the same compound?
Answer: Its EC50 is under 1 µM.

Question: Which results are given for `CC1(C)CN(C(=O)Cn2c(=O)c(C(=O)NCc3ccc(Cl)cc3)cc3cc(N4CCN(C(C)(C)C(=O)O)C4=O)cnc32)C1` [Compound 45, 2-(3-(6-{[(4-chlorophenyl)methyl]carbamoyl}-8-(2-(3,3-dimethylazetidin-1-yl)-2-oxoethyl)-7-oxo-7,8-dihydro-1,8-naphthyridin-3-yl)-2-oxoimidazolidin-1-yl)-2-methylpropanoic acid]?
Answer: CC50 at 4 days [1]: > 40 µM; IC50 [2, 5]: > 10 µM; IC50 [3]: < 1 µM; EC50 [4]: < 1 µM

Question: With `CC(C(=O)O)N1CCN(c2cnc3c(cc(C(=O)NCc4ccc(Cl)cc4)c(=O)n3CC(=O)N3CC(C)(C)C3)n2)C1=O` (centres unmarked) [Compound 46, 2-[3-(7-{[(4-chlorophenyl)methyl]carbamoyl}-5-[2-(3,3-dimethylazetidin-1-yl)-2-oxoethyl]-6-oxo-5,6-dihydropyrido[2,3-b]pyrazin-2-yl)-2-oxoimidazolidin-1-yl]propanoic acid] as the compound, how does the CC50 at 4 days [1] read?
Answer: Its CC50 at 4 days is over 40 µM.

Question: And the IC50 [2, 5]?
Answer: The IC50 was over 10 µM.

Question: And the IC50 [3]?
Answer: The IC50 was under 1 µM.

Question: What about the EC50 [4] of the same compound?
Answer: Its EC50 is under 1 µM.

— patent publication US20230136702A1, “Inhibitors of Human Herpesviruses” (The Governors of the University of Alberta, priority 2020, published 2023)
